# Data from ChEMBL document CHEMBL1129033, “Synthesis and antibacterial activity of U-100592 and U-100766, two oxazolidinone antibacterial agents for the potential treatment of multidrug-resistant gram-positive bacterial infections” (1996).
# What was measured:
# Streptococcus pneumoniae = experiment: In vitro antibacterial activity against Streptococcus pneumoniae strain UC 9912; assay type: functional
# Mus musculus [1] = experiment: In vivo antibacterial activity against Enterococcus faecium strain UC 15090 administered perorally in mice; assay type: functional; conditions: po
# Clostridium perfringens = experiment: In vitro antibacterial activity against Clostridium perfringens strain ATCC 13124; assay type: functional
# Klebsiella pneumoniae = experiment: In vitro antibacterial activity against Klebsiella pneumoniae strain UC 12081; assay type: functional
# Staphylococcus aureus [2] = experiment: In vitro antibacterial activity against Staphylococcus aures strain ATCC 29213; assay type: functional
# Enterococcus faecalis = experiment: In vitro antibacterial activity against Enterococcus faecalis strain ATCC 29212; assay type: functional
# Mus musculus [3] = experiment: (§1) In vivo antibacterial activity against Staphylococcus aures strain UC 9213 administered subcutaneously in mice; assay type: functional; conditions: sc
# [4] = system: Mycobacterium tuberculosis; experiment: In vitro antibacterial activity against Mycobacterium tuberculosis strain H37Rv; assay type: functional
# Escherichia coli = experiment: In vitro antibacterial activity against Escherichia coli strain ATCC 25922; assay type: functional
# Streptococcus pyogenes = experiment: In vitro antibacterial activity against Streptococcus pyogenes strain UC 152; assay type: functional
# Pseudomonas aeruginosa = experiment: In vitro antibacterial activity against Pseudomonas aeruginosa strain ATCC 27853; assay type: functional
# Mus musculus [5] = experiment: In vivo antibacterial activity against Staphylococcus aures strain UC 9213 administered perorally in mice; assay type: functional; conditions: po
# Bacteroides fragilis = experiment: In vitro antibacterial activity against Bacteroides fragilis strain ATCC 25285; assay type: functional
# Enterococcus faecium = experiment: In vitro antibacterial activity against Enterococcus faecium strain UC12712; assay type: functional
# [6] = system: Staphylococcus epidermidis; experiment: In vitro antibacterial activity against Staphylococcus epidermis strain UC 30031; assay type: functional
# Staphylococcus aureus [7] = experiment: In vitro antibacterial activity against Staphylococcus aures strain UC12673; assay type: functional
# Staphylococcus aureus [8] = experiment: In vitro antibacterial activity against Staphylococcus aures strain UC 9213; assay type: functional
# Mus musculus [9] = experiment: In vivo antibacterial activity against Enterococcus faecalis strain UC 12379 administered perorally in mice; assay type: functional; conditions: po
# Mus musculus [10] = experiment: In vivo antibacterial activity against Enterococcus faecalis strain UC 12379 administered subcutaneously in mice; assay type: functional; conditions: sc
# [11] = system: Mycobacterium tuberculosis; experiment: In vitro antibacterial activity against Mycobacterium tuberculosis strain H37Rv; f means comparative control value for isoniazid was 0.20 ug/mL.; assay type: functional, organism-based
# Mus musculus [12] = experiment: In vivo antibacterial activity against Enterococcus faecium strain UC 15090 administered subcutaneously in mice; assay type: functional; conditions: sc
# Mus musculus [13] = experiment: as §1; assay type: functional; conditions: sc; remark: listed apart in the source
compound,measurement,setting,value
CC(=O)NC[C@H]1CN(c2ccc(N3CCN(C(=O)CO)CC3)c(F)c2)C(=O)O1 [EPEREZOLID],MIC,Streptococcus pneumoniae,0.5 µg/mL
same,ED50,Mus musculus [1],12.5 mg/kg
same,MIC,Clostridium perfringens,1 µg/mL
same,MIC,Klebsiella pneumoniae,> 64 µg/mL
same,MIC,Staphylococcus aureus [2],4 µg/mL
same,MIC,Enterococcus faecalis,2 µg/mL
same,ED50,Mus musculus [3],0.9 mg/kg
same,MIC,[4],< 0.125 µg/mL
same,MIC,Escherichia coli,> 64 µg/mL
same,MIC,Streptococcus pyogenes,1 µg/mL
same,MIC,Pseudomonas aeruginosa,> 64 µg/mL
same,ED50,Mus musculus [5],1.9 mg/kg
same,MIC,Bacteroides fragilis,1 µg/mL
same,MIC,Enterococcus faecium,1 µg/mL
same,MIC,[6],1 µg/mL
same,MIC,Staphylococcus aureus [7],2 µg/mL
same,MIC,Staphylococcus aureus [8],4 µg/mL
same,ED50,Mus musculus [9],1.3 mg/kg
CC(=O)NC[C@H]1CN(c2ccc(N3CCOCC3)c(F)c2)C(=O)O1 [LINEZOLID],ED50,Mus musculus [1],24 mg/kg
same,MIC,Clostridium perfringens,1 µg/mL
same,MIC,Klebsiella pneumoniae,> 64 µg/mL
same,ED50,Mus musculus [3],2 mg/kg
same,MIC,[4],< 0.125 µg/mL
same,MIC,Escherichia coli,> 64 µg/mL
same,MIC,Streptococcus pyogenes,2 µg/mL
same,MIC,Pseudomonas aeruginosa,> 64 µg/mL
same,ED50,Mus musculus [5],5.6 mg/kg
same,MIC,Bacteroides fragilis,1 µg/mL
same,MIC,Enterococcus faecium,2 µg/mL
same,MIC,[6],1 µg/mL
same,ED50,Mus musculus [9],10 mg/kg
CN[C@H](CC(C)C)C(=O)N[C@H]1C(=O)N[C@@H](CC(N)=O)C(=O)N[C@H]2C(=O)N[C@H]3C(=O)N[C@H](C(=O)N[C@H](C(=O)O)c4cc(O)cc(O)c4-c4cc3ccc4O)[C@H](O)c3ccc(c(Cl)c3)Oc3cc2cc(c3O[C@@H]2O[C@H](CO)[C@@H](O)[C@H](O)[C@H]2O[C@H]2C[C@](C)(N)[C@H](O)[C@H](C)O2)Oc2ccc(cc2Cl)[C@H]1O [VANCOMYCIN],MIC,Streptococcus pneumoniae,0.5 µg/mL
same,MIC,Clostridium perfringens,1 µg/mL
same,ED50,Mus musculus [10],< 0.6 mg/kg
same,MIC,Klebsiella pneumoniae,> 64 µg/mL
same,MIC,[11],Comparitive control valie for isonazid was 0.20 ug/ml
same,ED50,Mus musculus [3],3.9 mg/kg
same,MIC,Escherichia coli,> 64 µg/mL
same,MIC,Pseudomonas aeruginosa,> 64 µg/mL
same,MIC,Bacteroides fragilis,> 16 µg/mL
same,ED50,Mus musculus [12],> 100 mg/kg
same,ED50,Mus musculus [13],3.9 mg/kg
